Results from publication PMC4152272 (PLoS ONE, 2014).

Assays:
N188 (Novozyme 188 BGL) [1] = tested on: T1, N188 (Novozyme 188 BGL); assay: glucose release, glucose assay reagent, […] nm; assay type: biochemical; settings: 50 mM acetate pH 5.0
T1 construct: gene bglA; commercial preparation Novozyme 188 (Novozymes), partially purified; N-glycosylated

N188 (Novozyme 188 BGL) [2] = tested on: T1, N188 (Novozyme 188 BGL); assay: p-nitrophenol release, […] nm, nonlinear least squares; assay type: biochemical; settings: 50 mM acetate pH 5.0, 50°C, 1 min

Km (N188 (Novozyme 188 BGL) [1]) [mM]	Km (N188 (Novozyme 188 BGL) [2]) [mM]	SMILES
2.53 ± 0.506	–	OC[C@H]1O[C@@H](O[C@H]2[C@H](O)[C@@H](O)C(O)O[C@@H]2CO)[C@H](O)[C@@H](O)[C@@H]1O (some centres unmarked) [cellobiose]
–	1.25 ± 0.164	O=[N+]([O-])c1ccc(O[C@@H]2O[C@H](CO)[C@@H](O)[C@H](O)[C@H]2O)cc1 [pNPG, p-nitrophenyl β-D-glucopyranoside]
